Assay [1] deals with high-MAP3K8 PDX model. The experiment in a line: Lung metastasis detection in PDX by RT-qPCR for human Alu sequences. It counts as in vivo, mouse. Particulars: compared to low-MAP3K8 PDX model. In general terms: Real-time PCR tracks product formation cycle by cycle.
For another assay, the system named is low-MAP3K8 PDX model. The experiment in a line: Efficacy study in patient-derived xenograft, low-MAP3K8 PDX model. It counts as in vivo, mouse. Conditions: for tumor growth inhibition (TGI): per os 5 times a week for 4 weeks, AZD6244 50 mg/kg, MEK162 25 mg/kg; for tumor growth: treated vs untreated. The method, then:
(§1) Grafting experiments were performed by subcutaneous injection of 2.7×10^6 exponentially growing SKOV3 stable cell lines into each flank of 6-week-old female Swiss nude mice (at least five mice per group). Patient derived xenograft (PDX) models of EOC tumors were established at the Curie Institute with patient consent (Paris, France). For efficacy studies in PDX models, at least 8 mice per group were treated per os 5 times a week for 4 weeks either left untreated (Ctrl) or treated with the following MEK inhibitors AZD6244 at 50 mg/kg, (Selleckchem #S100817) or MEK162 25 mg/kg (Active Biochem #A-1128) both diluted into 2% DMSO, 10% 2-Hydroxypropyl-beta-cyclodextrin, 5% glucose in PBS. Tumor growth was evaluated by measuring two perpendicular diameters of tumors with a caliper twice a week. Individual tumor volumes were calculated as (V)=a×b2/2, with a being the major diameter, and b the minor one. For each tumor, V was reported to the initial volume as relative tumor volume (RTV). Means (and s.e.m) of RTV in the same treatment group were calculated, and growth curves were established as a function of time. The tumor growth inhibition (TGI) was calculated using the following formula: 100−100×([…]). Curie Institute ethical committee approved all experiments.
(In general: A xenograft is tissue or cells of one species grown in another, often human tumour cells in immunodeficient mice.)

The test system of assay [2] is high-MAP3K8 PDX model. As to the kind of experiment: Efficacy study in patient-derived xenograft, high-MAP3K8 PDX model. Type of assay: in vivo, mouse. Particulars: for tumor growth inhibition (TGI): per os 5 times a week for 4 weeks, AZD6244 50 mg/kg, MEK162 25 mg/kg; for tumor growth: treated vs untreated. Here is the method:
as §1

The subject of the next assay is p38MAPK. The experiment in a line: Western blot of serum-induced p38MAPK phosphorylation in SKOV3 cells. Type of assay: cell-based, human. Particulars: SKOV3, KI 5 μM or 10 μM 1 h prior to 15 min 10% serum stimulation. Here is the method:
(§2) After overnight serum starvation (—FBS), SKOV3 cells and SKOV3 stable cell lines were stimulated with 10% serum for 15 minutes (+FBS). SKOV3 cell line was treated or not with 5 μM or 10 μM MAP3K8 kinase inhibitor as indicated (KI_5 μM or KI_10 μM) for 1 h prior to serum stimulation. After treatment, cells were washed once with cold PBS and scraped on ice with lysis buffer (50 mM Tris-HCl pH 7.5, 1 mM EDTA, 1 mM EGTA, 1% triton X-100, 1 mM Na3VO4, 50mMNaF, 0.27M sucrose, 0.1% β-mercaptoethanol) supplemented with EDTA-free protease inhibitor cocktail tablet (Roche #1836170). For immunoprecipitation (IP), 4×10^6 SKOV3 cells were plated into 10 cm petri dish. […] The protein concentration of the supernatant was determined using the Bio-Rad Dc Protein Assay Kit according to the manufacturer's instructions (Bio-Rad Laboratories). […]
(§3) For western blot analysis, samples were loaded onto homemade or precast 10% polyacrylamide gels (Invitrogen). […] Specific binding of antibodies was detected using appropriate peroxidase-conjugated secondary antibodies (Jackson ImmunoResearch Laboratories #115-035-003 and 115-035-045), and was visualized by enhanced chemiluminescence detection (Western Lightning® Plus-ECL, PerkinElmer). […]
For orientation: A western blot detects proteins with antibodies after separation by electrophoresis.

Assay [3] has as its system SKOV3 cells. As to the kind of experiment: Cell cycle analysis by flow cytometry (propidium iodide). Type of assay: cell-based, human. Conditions: KI treatment vs untreated control cells. The method, then:
(§4) The human epithelial ovarian cancer cell line SKOV3 and the SKOV3 stable cell lines were propagated in DMEM (Gibco) supplemented with 10% fetal bovine serum (FBS, PAA), penicillin and streptomycin (Gibco). 1 μg/mL puromycin was added only for SKOV3 stable cell lines. For SKOV3 stable cell lines, 10% serum stimulation was performed after overnight serum starvation for the indicated times. SKOV3 cells were plated and immediately treated or not with 5 μM MAP3K8 kinase inhibitor (KI, Calbiochem #616373) for the indicated times. The number of living cells was measured by trypan blue exclusion using Vi-Cell analyzer (Beckman Coulter). Cell cycle distributions were performed on ethanol-fixed cells, stained with propidium iodide and analyzed by flow cytometry. Flow cytometry data were acquired using CellQuest Pro (Becton Dickinson) software on the FACS LSRII machine (Becton Dickinson) and were analyzed using ModfitLT (Verity) software.

A further assay concerns ERK. The experiment in a line: Western blot of serum-induced ERK phosphorylation in SKOV3 cells. Type of assay: cell-based, human. Conditions: SKOV3, KI 5 μM or 10 μM 1 h prior to 15 min 10% serum stimulation. Here is the method: as §2, §3
A further assay relates to NF-κB. As to the kind of experiment: Western blot of serum-induced NF-κB phosphorylation in SKOV3 cells. It counts as cell-based, human. Conditions: SKOV3, KI 5 μM or 10 μM 1 h prior to 15 min 10% serum stimulation. The method, then: as §2, §3
Assay [4] deals with SKOV3 cells. The experiment in a line: Transwell BioCoat Matrigel invasion assay. It counts as cell-based, human. Conditions: KI treatment, 24 h. Here is the method:
(§5) 12 wells cell culture insert, and 24 wells Transwell BioCoat™ growth factor reduced Matrigel™ invasion chambers (BD Biosciences, […]) were used for migration and invasion assays, respectively. After overnight serum starvation, cells were plated to the upper side of the Transwell device, at least in duplicates, in serum free medium, while the lower well contained regular 10% FBS culture medium in order to create an FBS gradient. The inventors plated 80,000 cells for migration assay and ended the experiment 5 h later. For invasion assay, the inventors plated 50,000 and stopped the experiment 24 h later. At the end of the experiment, the remaining cells in the upper side of the Transwell device were removed. Migrating and invading cells at the bottom side of the Transwell device were fixed and stained with crystal violet for 30 minutes and then counted in the central field (×2.5 objective, Zeiss Axioplan microscope, AxioCamERc 5s).

Assay [5] relates to SKOV3 cells. The experiment in a line: Growth kinetics of SKOV3 cells (living cells counted by trypan blue exclusion). It counts as cell-based, human. The method, then: as §4
A further assay concerns JNK. The experiment in a line: Western blot of JNK phosphorylation in SKOV3 cells. Type of assay: cell-based, human. Conditions: SKOV3, KI 5 μM or 10 μM 1 h prior to 15 min 10% serum stimulation; not significant. Here is the method:
as §2, §3

Another assay concerns MEK. The experiment in a line: Western blot of serum-induced MEK phosphorylation in SKOV3 cells. It counts as cell-based, human. Particulars: SKOV3, KI 5 μM or 10 μM 1 h prior to 15 min 10% serum stimulation. Here is the method: as §2, §3
In assay [6] the test system is SKOV3 cells. The experiment in a line: Transwell migration assay. Type of assay: cell-based, human. Conditions: KI treatment, 5 h. The method, then: as §5

Consider `Cn1cnc2c(F)c(Nc3ccc(Br)cc3Cl)c(C(=O)NOCCO)cc21` [AZD6244], for which, in the assay on high-MAP3K8 PDX model [1], the lung metastatic incidence result is “significantly reduced”. Also, in the assay with low-MAP3K8 PDX model, the “tumor growth inhibition (TGI)” value is recorded as 22% and the tumor growth entry is listed as “much less impact”. In addition, in the assay with high-MAP3K8 PDX model [2], the “tumor growth inhibition (TGI)” value is given as approximately 60% and the tumor growth result is recorded as “markedly reduced tumor growth”.

With `N#Cc1cnc2cnc(NCc3cccnc3)cc2c1Nc1ccc(F)c(Cl)c1` [KI], in the assay on p38MAPK, the “serum-induced p38MAPK phosphorylation” value was “not affected”. For the same molecule, in the assay with SKOV3 cells [3], the “percentage of cells in G1 phase” value is listed as “significant increase”. Besides, in the assay with ERK, the “serum-induced ERK phosphorylation” value is “significantly reduced”. Further, the “serum-induced NF-κB phosphorylation” value in the assay on NF-κB was “not affected”. Also, in the assay with SKOV3 cells [4], the cell invasion result was “inhibited”. Moreover, the “total number of cells” value in the assay with SKOV3 cells [5] (5 μM KI vs untreated) is listed as “reduced the total number of cells”. In addition, in the assay on SKOV3 cells [5] (KI treatment), the cell viability entry is on record as “without any impact on cell viability”. Also, the cell doubling time entry in the assay with SKOV3 cells [5] (KI treatment vs untreated) is “increase in cell doubling time”. Besides, the JNK phosphorylation entry in the assay on JNK is on record as “slight decrease”. Moreover, in the assay with MEK, the “serum-induced MEK phosphorylation” value was “significantly reduced”. For the same molecule, in the assay with SKOV3 cells [6], the cell migration entry is recorded as “significantly reduced cell migration”.

For `Cn1cnc2c(F)c(Nc3ccc(Br)cc3F)c(C(=O)NOCCO)cc21` [MEK162], in the assay on high-MAP3K8 PDX model [1], the lung metastatic incidence entry was “significantly reduced”. Also, in the assay with low-MAP3K8 PDX model, the “tumor growth inhibition (TGI)” value came to 22% and the tumor growth result was “much less impact”. In the assay with high-MAP3K8 PDX model [2], the “tumor growth inhibition (TGI)” value was approximately 60% and the tumor growth result is “markedly reduced tumor growth”.

For the origin of these results see patent US20170242015A1, “MAP3K8 AS A MARKER FOR SELECTING A PATIENT AFFECTED WITH AN OVARIAN CANCER FOR A TREATMENT WITH A MEK INHIBITOR” (INSTITUT CURIE, priority 2014, published 2017).
